Results reported in patent publication US10117877B2, “Methods for fat reduction” (ALLERGAN, INC., priority 2015, dated 2018).
“Also recorded” adds a separate entry of the source.

Assays:
[1] = system: Human Hair Dermal Papilla Cells (HHDPCs); assay: in vitro impedance (cell dielectric spectroscopy, CellKey) assay with human dermal papilla cells; type: cell-based; conditions: 10^−5 to 10^−12 M, impedance measured over 20 minutes, three independent experiments
Experimental: In this example, the lack of activity of the compound according to Formulas I and II is shown. In general, bimatoprost or the compound of Formula I was incubated at concentrations from 10^−5 and 10^−12 M with human dermal papilla cells in an in vitro impedance assay. […] Three independent experiments were performed.
More specifically, Human Hair Dermal Papilla Cells (HHDPCs) were expanded in specific culture medium (Promo Cell). After growing, the cells were seeded on 96 well plates coated with poly-L-Lysine at 20,000 cells per well. Cells were incubated during 24 hours at 37° C., 5% CO2. The day of the experiment, the culture medium was eliminated and replaced by HBSS containing BSA, 0.1% v/v. The cells were incubated in the CellKey system, for 4 hours at 28° C. before using to test compounds. Bimatoprost, the compound of Formula I, and/or the compound of Formula II were tested at […] from 10^−5 to 10^−12 M. The change in impedance was measured over 20 minutes. The background was subtracted and the impedance signal was normalized to the reference (bimatoprost) for the compound of Formula I and the compound of Formula II. The data presented is in triplicate and of three independent experiments.

female C57BL/6J mice = assay: in vivo mouse hair re-growth model, topical on shaved backs; conditions: 0.03% topical in minoxidil formulation; for full hair re-growth: shaved backs of mice
Experimental: In general, the compound of formula I and bimatoprost were prepared in the minoxidil formulation (50% Propylene Glycol; 30% Ethyl Alcohol) at a concentration of 0.03% for both compounds. Both compounds were given topically to shaved backs of mice (as described in Khidhir et al. FASEB J. 2013 27(2):557-567).
More specifically, female C57BL/6J mice (cat. no. 000664; Jackson Laboratory, Bar Harbor, Me., USA), aged 7 weeks, were randomly distributed into 4 groups to avoid any sibling bias and housed in groups of 5 with standard diet food pellets and water available ad libitum. […] From the next day, termed d 0 (zero), each mouse was treated topically with either the vehicle alone (ethanol:propylene glycol:water 3:5:2) or 0.03, 0.10, or 0.30% bimatoprost in the vehicle for d 14; 10 mice were used for each condition. The appropriate solution (70 μl) was rubbed gently into the dorsal skin of each mouse daily; new gloves were worn for each treatment type. Hair growth was recorded daily for each animal for d 42, and dorsal photographs were taken at d 0, 7, 14, 17, 21, 24, 28, 31, 35, and 42. […] To calculate mean values, the first day of growth was designated as d 43 for any mouse showing no hair growth signs by the last day. The day when the shaved dorsal area was fully covered with new black hairs, i.e., there was no pink skin remaining and no visible difference in hair length to the adjacent unshaved areas, was also recorded. This assay has been successfully used to evaluate compounds that cause hair growth (see, e.g., Khidhir et al. FASB J. 2013, 27, 557-567; Plikus et al. J. Invest. Dermatol. 2008, 128, 1071-1080).

[2] = system: prostamide receptors on human pre-adipocytes; assay: xCelligence impedance assay on pre-adipocytes; type: cell-based; conditions: for EC50: 20 min, human pre-adipocytes, 7 concentrations (10^−5 to 10^−9 M), signal measured for 20 minutes; for stimulation of prostamide receptors on human pre-adipocytes: xCelligence impedance assay; for potency relative to bimatoprost on human pre-adipocytes: comparison of the EC50 values of Table 1
Experimental: In this example it is shown that the compounds of Formulas I and II stimulates pre-adipocytes. In general, the compounds of Formulas I and II and bimatoprost were tested in the xCelligence impedance assay.
More specifically, pre-adipocytes were purchased from Lonza. Cells were expanded in Pre-adipocyte maintenance medium (Lonza, Switzerland). Once expanded, 10,000 cells per well were plated into xCelligence 96-well plates and incubated at 37° C. for 72 hours until the impedance signal normalized. Once normalized, media was switched to serum-free pre-adipocyte media (PDM-2) for 2 hours at 37° C. Once the signal stabilized for 30 minutes, compounds were added at 7 concentrations (10^−5 to 10^−9 M) and the signal measured for 20 minutes. The change in impedance was normalized to the background reading (buffer alone) and the EC50 calculations were determined using prism software.

[3] = body weight gain in rats on daily oral gavage for 26 weeks; type: in vivo, rats (Hsd: Sprague Dawley)
Experimental: In this example it is shown that the compound of Formula I when administration orally daily results in reduction in weight gain and lower mean body weights. In general males rats (n=17-20) and female rats (n=17-20) were administered orally (by gavage) daily for 6 months at the doses indicated below.
More specifically, male and female rats (Hsd: Sprague Dawley) were assigned to four groups and administered test article formulations (0.03, 0.3, or 5 mg/kg/day compound of Formula I) or vehicle control article (0 mg/mL [0%] compound of Formula I [placebo] containing 3% hydroxypropyl-β-cyclodextrin [30 mg/mL (150 mg/kg/day)] and 10 mM phosphate buffered saline) via oral gavage once daily for 26 weeks at a volume of 5 mL/kg. Animals were sacrificed at the end of the dosing phase (up to 15 animals/sex/group) or at the end of the 4-week recovery phase (5 animals/sex/group in dose groups given vehicle control article and 5 mg/kg/day the compound of Formula I). These animals were on a restricted diet due to the length of the study. Weights were measured once per week.

[4] = 5 mg/kg/day oral gavage daily for 6 months, p<0.05

EC50 [2] [nM]	stimulation of prostamide receptors on human pre-adipocytes [2]	potency relative to bimatoprost on human pre-adipocytes [2]	Compound	change in impedance (agonist response) on human dermal papilla cells [1]	start of hair re-growth (female C57BL/6J mice)	full hair re-growth (female C57BL/6J mice)	weight gain, female rats ([3]; 0.3 mg/kg/day oral gavage daily for 6 months, p<0.05)	weight gain, female rats [3, 4]	weight gain, male rats [3, 4]	reversibility of the weight effect after administration ceased ([3]; 4-week recovery phase after 5 mg/kg/day)	start of the decrease in body weight gain ([3]; daily oral administration, male and female rats, persisted up to 183 days) [days]
784	stimulate prostamide receptors	–	CCNC(=O)CCC/C=C\C[C@@H]1[C@@H](/C=C/[C@@H](O)CCc2ccccc2)[C@H](O)C[C@@H]1O [Bimatoprost, bimatoprost, reference compound]	reduction in impedance; also recorded: shows activity	accelerates both time to start and full hair re-growth	accelerates both time to start and full hair re-growth	–	–	–	–	–
11.7	stimulate prostamide receptors	relatively more potent than bimatoprost	NC(=O)CCC/C=C\C[C@@H]1[C@@H](/C=C/[C@@H](O)CCc2cc(Br)sc2Br)[C@H](O)C[C@@H]1O [Formula II]	do not show activity	–	–	–	–	–	–	–
10.7	stimulate prostamide receptors	relatively more potent than bimatoprost	NC(=O)CCC/C=C\C[C@@H]1[C@@H](/C=C/[C@@H](O)CCc2cc(Cl)sc2Cl)[C@H](O)C[C@@H]1O [Formula I]	did not produce any detectable effect; also recorded: do not show activity	appears to boost the start to hair re-growth	does not result in full hair re-growth	inhibited weight gain	inhibited weight gain	inhibited weight gain	somewhat reversible	14
